For 9 compounds, GI50 and TGI results are on record in PubChem BioAssay (NCI).

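Growth conditions: 96-well plates. Treatment: test compound, 48 hours, 5 concentrations. Analysis: linear interpolation between bracketing concentrations; unreached endpoints set to highest concentration. Here, GI50 denotes the concentration required for 50% inhibition of growth. TGI is the concentration that stops growth completely.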

Test systems include MALME-3M melanoma; CCRF-CEM leukemia; MDA-MB-231 breast; RPMI-8226 leukemia; 786-0 renal; SN12C renal; NCI-H23 lung; U251 CNS; ACHN renal; MCF7 breast.
Common to all, as to test: DTP human tumour cell line panel, 48 h

As a reminder, the GI50 is the concentration giving 50% growth inhibition. In general, TGI refers to the concentration giving total growth inhibition. A lower TGI goes with more potent growth arrest. In the case of `O=C(Nc1n[nH]c2cc(-c3ccc(F)cc3)ccc12)C1CC1`, the GI50 in the assay with MALME-3M melanoma is 9.79 µM; in the assay with CCRF-CEM leukemia, 8.77 µM; with MDA-MB-231 breast it was 12.6 µM; in the assay on RPMI-8226 leukemia it was 8.44 µM; in the assay with 786-0 renal, 17.7 µM; with SN12C renal, 10.8 µM. In addition, the GI50 in the assay with NCI-H23 lung was 7.18 µM; with U251 CNS, 10.2 µM; in the assay with ACHN renal, 16.8 µM; with MCF7 breast, 5.54 µM. Also, the TGI in the assay with MALME-3M melanoma, in the assay on CCRF-CEM leukemia, with MDA-MB-231 breast, with RPMI-8226 leukemia, in the assay on 786-0 renal and with SN12C renal was greater than 25 µM in each case. Besides, the TGI in the assay on NCI-H23 lung was greater than 25 µM; with U251 CNS, greater than 25 µM; in the assay with ACHN renal it was greater than 25 µM; in the assay with MCF7 breast, greater than 22.2 µM.

As for `COc1ccc(CC2OC3(CCCCC3)CC3CCCCN32)cc1` (centres undefined), the TGI with MALME-3M melanoma, in the assay with CCRF-CEM leukemia, in the assay with MDA-MB-231 breast, in the assay on RPMI-8226 leukemia, with 786-0 renal and with SN12C renal was greater than 100 µM each time. Moreover, the TGI in the assay on NCI-H23 lung, in the assay on U251 CNS, with ACHN renal and with MCF7 breast was greater than 100 µM in each case.

Consider `COc1ccc(/C=C2\CCC(C)(CN(C)C)C2=O)cc1Br` (centres undefined), for which the TGI in the assay on MALME-3M melanoma is 61.9 µM; in the assay with CCRF-CEM leukemia, greater than 80.5 µM; with MDA-MB-231 breast, 68.1 µM; in the assay on RPMI-8226 leukemia, 58.4 µM; in the assay on 786-0 renal, 34.9 µM; with SN12C renal, 31.8 µM. Moreover, the TGI was greater than 95.1 µM in the assay with NCI-H23 lung, 45.1 µM in the assay on U251 CNS, greater than 62.6 µM in the assay on ACHN renal and 42.1 µM in the assay on MCF7 breast.

As for `Nc1[nH]c(=S)[nH]c(=O)c1N=Nc1c(Br)cc(S(N)(=O)=O)cc1Br`, the TGI with MALME-3M melanoma, in the assay on CCRF-CEM leukemia, in the assay with MDA-MB-231 breast, in the assay on RPMI-8226 leukemia, in the assay with 786-0 renal and with SN12C renal was greater than 100 µM throughout. The TGI in the assay on NCI-H23 lung, with U251 CNS, in the assay on ACHN renal and in the assay on MCF7 breast was greater than 100 µM in each case.

For `Cc1c(-c2c(F)cc(C(N)=O)c3[nH]c4c(c23)CC[C@H](C(C)(C)O)C4)cccc1-n1c(=O)c2cccc(F)c2n(C)c1=O`, the GI50 was 1.84 µM with MALME-3M melanoma; 4.52 µM in the assay with CCRF-CEM leukemia; 4.34 µM in the assay on MDA-MB-231 breast; 2.82 µM in the assay with RPMI-8226 leukemia; 3.54 µM with 786-0 renal; 3.9 µM with SN12C renal. Further, the GI50 in the assay with NCI-H23 lung was 2.79 µM; in the assay with U251 CNS it was 6.07 µM; with ACHN renal, 2.8 µM; in the assay on MCF7 breast it was 1.04 µM. Moreover, the TGI in the assay with MALME-3M melanoma was 28.2 µM; in the assay with CCRF-CEM leukemia it was greater than 100 µM; in the assay on MDA-MB-231 breast, greater than 100 µM; with RPMI-8226 leukemia, 9.01 µM; in the assay with 786-0 renal, greater than 100 µM; with SN12C renal, greater than 100 µM. Besides, the concentration for total growth inhibition (TGI) in the assay on NCI-H23 lung, in the assay on U251 CNS, with ACHN renal and in the assay on MCF7 breast was greater than 100 µM in each case.

For `Cc1ccccc1N=C(c1ccccc1)C1C(=O)c2ccccc2C1=O`, the GI50 in the assay with MALME-3M melanoma is 0.562 µM; with CCRF-CEM leukemia, 12.8 µM; in the assay with MDA-MB-231 breast it was 21.3 µM; with RPMI-8226 leukemia it was 4.27 µM; with 786-0 renal it was 7.05 µM; in the assay with SN12C renal, 19.9 µM. For the same compound, the GI50 with NCI-H23 lung was 15.8 µM; in the assay with U251 CNS it was 24.6 µM; with ACHN renal, 19 µM; in the assay on MCF7 breast it was 1.48 µM. For the same compound, the TGI in the assay with MALME-3M melanoma was 6.66 µM; with CCRF-CEM leukemia, 62.3 µM; in the assay on MDA-MB-231 breast, greater than 100 µM; with RPMI-8226 leukemia, 27 µM; in the assay with 786-0 renal it was 36 µM; in the assay on SN12C renal it was greater than 100 µM. Besides, the TGI in the assay with NCI-H23 lung is greater than 100 µM; in the assay with U251 CNS it was greater than 100 µM; in the assay with ACHN renal, 62.4 µM; in the assay with MCF7 breast, 19.3 µM.

For `O=[N+]([O-])c1ccc(NC(c2ccccc2)c2ccc3cccnc3c2O)cc1` (centres undefined), the GI50 with MALME-3M melanoma is 0.826 µM; in the assay on CCRF-CEM leukemia it was 0.246 µM; in the assay with MDA-MB-231 breast, 0.696 µM; in the assay on RPMI-8226 leukemia it was 0.313 µM; in the assay with 786-0 renal it was 0.363 µM; with SN12C renal, 0.935 µM. Moreover, the GI50 in the assay on NCI-H23 lung was 0.414 µM; with U251 CNS, 0.418 µM; with ACHN renal it was 0.351 µM; in the assay on MCF7 breast, 0.335 µM. For the same compound, the TGI in the assay with MALME-3M melanoma is greater than 100 µM; with CCRF-CEM leukemia it was 7.97 µM; in the assay on MDA-MB-231 breast, greater than 100 µM; in the assay with RPMI-8226 leukemia it was greater than 100 µM; with SN12C renal it was greater than 100 µM; with NCI-H23 lung, greater than 100 µM. For the same compound, the figures for the TGI in the assay with U251 CNS, with ACHN renal and with MCF7 breast were greater than 100 µM, greater than 89.9 µM and greater than 100 µM, respectively.

For the compound `Cc1cc(C2CC(O)C(CO)O2)c(Br)cc1Br` (centres undefined), the GI50 with MALME-3M melanoma is greater than 100 µM; in the assay with CCRF-CEM leukemia it was greater than 100 µM; with MDA-MB-231 breast, 58.5 µM; in the assay with RPMI-8226 leukemia it was 85.8 µM; in the assay with 786-0 renal, greater than 100 µM; in the assay on SN12C renal it was greater than 100 µM. Further, the GI50 in the assay with NCI-H23 lung, in the assay with U251 CNS, in the assay on ACHN renal and in the assay with MCF7 breast was greater than 100 µM in each case. Also, the TGI in the assay with MALME-3M melanoma, with CCRF-CEM leukemia, in the assay with MDA-MB-231 breast, with RPMI-8226 leukemia, in the assay on 786-0 renal and in the assay with SN12C renal was greater than 100 µM each time. In addition, the TGI in the assay with NCI-H23 lung, in the assay with U251 CNS, with ACHN renal and in the assay with MCF7 breast was greater than 100 µM in each case.

On to `COc1cc2cc(C(=O)Nc3ccccc3)c(N)nc2cc1OC`, for which the GI50 with MALME-3M melanoma is 44.3 µM; with CCRF-CEM leukemia, 35.9 µM; with MDA-MB-231 breast, 59.6 µM; with RPMI-8226 leukemia, 28.3 µM; in the assay on 786-0 renal, 31.7 µM; with SN12C renal, 53.8 µM. Further, the GI50 in the assay on NCI-H23 lung was 73.9 µM; with U251 CNS, 43.1 µM; in the assay on ACHN renal, 39.4 µM; in the assay on MCF7 breast, 48.8 µM. For the same compound, the TGI in the assay on MALME-3M melanoma, with CCRF-CEM leukemia, with MDA-MB-231 breast, with RPMI-8226 leukemia, with 786-0 renal and in the assay on SN12C renal was greater than 100 µM each time. Further, the TGI with NCI-H23 lung, in the assay on U251 CNS, in the assay with ACHN renal and in the assay on MCF7 breast was greater than 100 µM throughout.
